{"source": "patent US20050014730A1", "about": "“Anti-fungal formulation of triterpene and essential oil” (priority 2003, published 2005)", "origin": "cited, not measured here", "data": [{"smiles": "C=C(C)[C@@H]1CC[C@]2(CO)CC[C@]3(C)[C@H](CC[C@@H]4[C@@]5(C)CC[C@H](O)C(C)(C)[C@@H]5CC[C@]43C)[C@@H]12", "note": "[betulin]", "values": [{"measurement": "solubility of betulin in water", "value": "about 0.15 mg/l"}]}]}
